From publication PMC11345766, “Computational Design of Pore-Forming Peptides with Potent Antimicrobial and Anticancer Activities” (Journal of Medicinal Chemistry, 2024)
Read-outs that look alike come from different tables or passages of the source. Ends that are not written are not given here.

Columns and labels:
[1] = test system: MOLM-13, MEC-1 and SU-DHL-4 cancer cell lines; settings: read-out: IC50 values over three cancer cell lines; after 24 h of incubation; physiological pH
Procedure: Anticancer activity of peptides against acute myeloid leukemia MOLM-13, chronic lymphocytic leukemia MEC-1, and diffuse large B-cell lymphoma SU-DHL-4 cell lines was tested using a WST cell viability assay. Cells were cultured in 75 cm^2 culture flasks at 37 °C in 5% CO2 according to the DSMZ recommendations before the start of the experiment. Then, the cells were seeded into 96-well plates in quadruplicate at 2.5 × 10^4 cells/well for SU-DHL-4, and 5 × 10^4 cells/well for MEC-1 and MOLM-13. Cells were treated with either peptides or PBS alone (negative control) for 24–72 h at 37 °C in 5% CO2. After incubation, cell viability was measured by WST-1 (Roche) according to the manufacturer’s instructions using Tecan microplate reader Infinite M200 PRO Plex and expressed as percentage compared to control.

[2] = test system: HL-60, K-562, MCF-7 and HCT-116 cells; experiment: Viability by flow cytometry DiOC6/7AAD staining, effect of pH and media; type: cell-based, human; settings: 10 μM, 1 h; RPMI, DMEM, PBS at pH 8, 7, 6 and ∼7.6
Procedure: To investigate the effect of pH and media on anticancer activity, we further tested the peptides against four cell lines, HL-60, K-562, and MCF-7, and the colon cancer cells HCT-116, cultured in three different media, namely, RPMI, DMEM, and PBS, each adjusted to three different pH values 8, 7, and 6, and additionally one case without pH adjustment (∼7.6) (Figure 6c). To avoid pH changes due to the natural buffering of the CO2-bicarbonate system used in cell culture, the peptides were tested at a concentration of 10 μM for only 1 h, as the cell lysis effect was already apparent within 30 min of exposure (Figure S9d).
Effects of pH and culture medium on the anticancer activity of peptides against acute myeloid leukemia HL-60, chronic myeloid leukemia K-562, breast adenocarcinoma MCF-7, and colon cancer cells HCT-116 cultured in three different media RPMI (#21875034, Gibco), DMEM (#LM-D1110/500, Biosera), and PBS adjusted to three different pH values 8, 7, and 6, and a medium without pH adjustment (∼7.6), were tested using flow cytometry DiOC6/7AAD (3,3-dihexyloxacarbocyanine iodide/7-amino-actinomycin D) staining assay, as described previously.[102] Media pH was adjusted twice, i.e., 1 day before the experiment and immediately before the experiment. Medium was supplemented with 10% heat-inactivated FBS, glutamine, sodium pyruvate, and antibiotics (100 U/mL penicillin and 100 μg/mL streptomycin). […] To determine cell viability, cells were incubated with DiOC6 (Thermo Fisher Scientific) and 7AAD (Thermo Fisher Scientific) for 15 min at 37 °C and cell viability was measured using a BriCyte E6 flow cytometer (Mindray); viable cells were considered as DiOC6-positive and 7AAD-negative.
The effect of pH on peptide activity in cancer cells was evaluated by the multiway ANOVA followed by Tukey post hoc test. Regarding the comparison of the effect of the medium, we analyzed the data from Figure 6c by comparing RPMI medium and DMEM of the same pH, and statistical significance was assessed using the multiway ANOVA followed by Tukey post hoc test. […]

[3] = Procedure: (§1) Cytotoxicity against human immortalized keratinocytes HaCaT, human alveolar basal epithelial A549 (derived from adenocarcinoma), and murine macrophages RAW 264.7 was tested using MTT [3-(4,5-dimethylthiazol-2-yl)-2,5-diphenyltetrazolium bromide] assay. Cells were cultured in Dulbecco’s modified Eagle’s medium (DMEM) containing 4 mM glutamine for HaCaT, or 2 mM glutamine for A549 and RAW 264.7 cells, supplemented with 10% heat-inactivated fetal bovine serum (FBS) and antibiotics (0.1 mg/mL penicillin and streptomycin). Nonessential amino acids (NEAA) and sodium pyruvate (1 mM) were added for macrophages. Cell lines were grown in 25 and 75 cm^2 flasks at 37 °C in a humidified atmosphere with 5% CO2. Cells were suspended in DMEM, containing glutamine, NEAA, and sodium pyruvate (as described above), supplemented with 2% FBS, plated in 96-well plates at 4 × 10^4 cells/well, and incubated at 37 °C in a 5% CO2 atmosphere. After overnight incubation, the medium was replaced with fresh DMEM supplemented with peptides at different concentrations: 2, 4, 8, 16, 32, 64, and 128 μM. Negative controls were cells without peptides. After 24 h of peptide treatment at 37 °C in a 5% CO2 atmosphere, medium was replaced with Hank’s buffer (136 mM NaCl, 0.34 mM Na2HPO4, 0.44 mM KH2PO4, 5.4 mM KCl, 4.1 mM NaHCO3, supplemented with 5.5 mM D-glucose) containing 0.5 mg/mL MTT. Mitochondrial dehydrogenases converted soluble yellow dye MTT to insoluble purple formazan. After 4 h of incubation, acidified isopropanol was added to dissolve formazan crystals and measured for OD570 using Tecan microplate reader Infinite M200 (Salzburg, Austria).
[4] = remark: listed apart in the source
Procedure: as §1, with “After 24 h of peptide treatment at 37 °C in a 5% CO2 atmosphere, medium was replaced with Hank’s buffer (136 mM NaCl, 0.34 mM Na2HPO4, 0.44 mM KH2PO4, 5.4 mM KCl, 4.1 mM NaHCO3, supplemented with 5.5 mM D-glucose) containing 0.5 mg/mL MTT. Mitochondrial dehydrogenases converted soluble yellow dye MTT to insoluble purple formazan.” left out

[5] = remark: listed apart in the source
Procedure: as §1

[6] = test system: normal B and T lymphocytes, granulocytes, and monocytes in whole blood; experiment: Viability by flow cytometric staining in whole blood; type: cell-based, human; settings: up to the highest tested concentration of 50 μM; 16 h
Procedure: Finally, we tested the effect of LP1 and LP40 on healthy primary cells in whole blood from a healthy donor (Figure S11).
The whole blood was seeded in a 96-well plate at 200 μL/well and treated with peptides for 16 h. The samples were then stained with anti-CD3 (FITC, Sony), anti-CD14 (APC-Cy7, Sony), and anti-CD19 (PE, Beckman Coulter) antibodies and incubated for 20 min at room temperature in the dark. The cells were then incubated with red blood cell lysis buffer for 10 min at room temperature, centrifuged, resuspended in PBS containing SYTOX Blue Dead Cell Stain (Thermo Fisher Scientific) and measured using a FACSVerse flow cytometer (BD Biosciences).

[7] = single intraperitoneal dose at 10 times the MIC
Procedure: Neutropenic mice were infected intramuscularly (in the right thigh) with 10^6 cells per mL of Gram-negative A. baumannii (ATCC 19606).
(a) Schematic of the deep thigh infection model in which bacteria are injected intramuscularly at day 4 and peptides are administered intraperitoneally also at day 4 to assess their anti-infective activity. Mice were euthanized 4 days postinfection (day 8). Each group consisted of six mice (n = 6), and the bacterial loads used to infect the mice derived from three different inocula. […] Polymyxin B (0.006 mg/kg) and levofloxacin (0.014 mg/kg) were used as the reference antibiotics. Statistical significance was done using one-way ANOVA followed by Dunnett’s test. Violin plots represent the median, upper quartile, and lower quartile. (c) Mouse weight was monitored to exclude possible toxic effects of the peptides.
Six-week-old female CD-1 mice (obtained from Charles River; stock number 18679700-022) underwent neutropenia induction via two intraperitoneal doses of cyclophosphamide (150 mg kg^–^1) administered with a 72 h interval. One day later, the mice received an intramuscular injection containing A. baumannii ATCC 19606 (10^6 CFU mL^–1) in the right thigh. Bacteria were cultured in LB broth, washed twice with PBS (pH 7.4), and resuspended to the desired concentration. […] Polymyxin B (0.006 mg/kg) and levofloxacin (0.014 mg/kg) were used as the reference antibiotics. Prior to each injection, mice were anesthetized with isoflurane and their respiratory rate and pedal reflexes were monitored. Subsequently, we observed the infection establishment and euthanized the mice. The infected area was excised 4 days postinfection (i.e., 8 days after the beginning of the experiment), homogenized using a bead beater for 20 min (25 Hz), and 10-fold serially diluted for CFU quantification on MacConkey agar plates. Each experimental group comprised three mice. All experiments were conducted blindly, and no animals were excluded from the analysis. Statistical significance was assessed using one-way ANOVA followed by Dunnett’s test on log10-transformed data to mitigate outlier effects; p values are reported for each group, with all groups compared to the untreated control group.

[8] = Calcein dye leakage assay from LUVs; type: biochemical; settings: P:L 1:100; pH 7.4
Source text: To verify the pore-forming mechanism of action of the designed AMPs, we performed a calcein leakage assay. […] These lipid vesicles were used as simple mimics of bacterial membranes.[58] At the lowest tested peptide-to-lipid (P:L) ratio of 1:100 (mol/mol), three mutants (LP18, LP26, and LP40) caused >90% leakage, which was higher than the leakage caused by LP1 (87%). […] At the same concentration, LP23 caused leakage equivalent to that caused by LP1. Other mutants had lower leakage activity. At a higher P:L ratio of 1:50, all the abovementioned mutants caused 100% leakage, equivalent to that caused by LP1.
Pore-forming activity was tested using a dye leakage assay measuring the leakage of self-quenching fluorescent dye calcein from POPC:POPG (1:1 mol/mol) LUVs. DiD was mixed with lipids (1:500 mol/mol), and lipid film was created by evaporating chloroform, followed by 4 h of desiccation. Dried lipid film was dissolved in calcein buffer (35 mM calcein, 25 mM NaH2PO4·H2O and Na2HPO4·7H2O (3:7 mol/mol), 20 mM NaCl, and 1 mM EDTA). After 10 freeze–thaw cycles, the sample was extruded 50 times through a 100 nm pore size polycarbonate membrane filter. Free calcein in solution was removed using a HiTrap Desalting column. The concentrations of LUVs and peptides were adjusted to 0.02 and 0.1 mM, respectively, in PBS (25 mM NaH2PO4·H2O and Na2HPO4·7H2O (3:7 mol/mol), 100 mM NaCl, and 1 mM EDTA). The investigated P/L ratio was from 1:100 to 1:10 (mol/mol). Fluorescence intensity was measured using a HORIBA Scientific Jobin Yvon FluoroLog-3 Modular Spectrofluorometer (USA). Excitation and emission wavelengths were set to 495 and 520 nm, respectively. Triton X-100 10% caused 100% leakage used for normalization.

E. coli (TOP10) = experiment: Broth microdilution antimicrobial susceptibility assay; type: cell-based, Escherichia coli; settings: TOP10, 24 h
Source text: (§2) To test antimicrobial activity, all peptides were initially screened, in a broth microdilution assay, against Gram-negative Escherichia coli (TOP10) and Gram-positive Staphylococcus carnosus (CCM 4838T) Biosafety Level 1 (BSL-1) bacteria (Table 2). […] Four other mutants (LP3, LP26, LP36, and LP39) had higher activity than LP1 against E. coli, and two mutants (LP23 and LP32) had higher activity than LP1 against S. carnosus. Six mutants (LP29, LP30, LP31, LP33, LP40, and LP43) were not active against one or both bacteria, even at the highest concentration tested (50 μM).
(§3) Antimicrobial activity against E. coli TOP10 and S. carnosus CCM 4838T was tested using the broth microdilution assay. Bacteria were cultured in MHA Petri dish for 24 h, subcultured in an MHB test tube for 6 h at 37 °C, and diluted to 10^6 CFU/mL (OD600). […] Dilution series was prepared for concentrations 50 to 0.1 μM in a flat-bottom 96-well plate, inoculated with bacteria, and incubated for 24 h at 37 °C. Growth control wells were free from test compounds, and sterility control wells were free from bacteria. Bacterial MIC was determined as the lowest concentration of test compounds that inhibited visible growth of bacteria (i.e., no visible turbidity).

S. carnosus (CCM 4838T) = experiment: microbe, parasite or virus in culture; type: cell-based, Staphylococcus carnosus; settings: CCM 4838, 24 h; read-out: Antimicrobial activity (MIC) S. carnosus (CCM 4838T)
Source text: as §2, §3

[9] = test system: human red blood cells (HRBCs); settings: read-out: Hemolysis toxicity (IC50); 1 h incubation
Procedure: To investigate the toxicity for normal human cells, all peptides were first screened against human red blood cells (HRBCs) using a hemolysis assay (Table 2 and Figure S4).
Hemolysis toxicity was tested against HRBCs. Blood samples, collected from the university hospital, were centrifuged twice at 700 × g and once at 1000 × g for 8 min at 4 °C to obtain erythrocyte pellets. Supernatants were always discarded, and pellets were resuspended in PBS (the same as the antimicrobial susceptibility assay). The final RBC suspension was 0.5% (v/v). Dilution series was prepared for concentrations 50 to 0.1 μM in a V-bottom 96-well plate, followed by the addition of RBC suspension. […] After 1 h of incubation at 37 °C, the well plate was centrifuged at 1000 × g for 10 min at 4 °C. The supernatant, collected in a flat-bottom well plate, was measured for OD415 using Tecan Microplate Reader Infinite F500.

[10] = test system: murine macrophages RAW 264.7; settings: 24 h
Procedure: as §1

E. coli (E1098) = settings: E1098, 18 h

## CC[C@H](C)[C@H](NC(=O)CN)C(=O)NCC(=O)N[C@@H](C)C(=O)N[C@H](C(=O)N[C@@H](CC(C)C)C(=O)N[C@@H](CCCCN)C(=O)N[C@H](C(=O)N[C@@H](CC(C)C)C(=O)N[C@H](C(=O)N[C@H](C(=O)NCC(=O)N[C@@H](CC(C)C)C(=O)N1CCC[C@H]1C(=O)N[C@@H](C)C(=O)N[C@@H](CC(C)C)C(=O)N[C@H](C(=O)N[C@@H](CO)C(=O)N[C@@H](Cc1c[nH]c2ccccc12)C(=O)N[C@H](C(=O)N[C@@H](CCCCN)C(=O)N[C@@H](CCCNC(=N)N)C(=O)N[C@@H](CCCCN)C(=O)N[C@@H](CCCNC(=N)N)C(=O)N[C@@H](CCC(N)=O)C(=O)N[C@@H](CCC(N)=O)C(N)=O)[C@@H](C)CC)[C@@H](C)CC)[C@@H](C)O)[C@@H](C)O)C(C)C)C(C)C [Melittin, reference compound]
[1]
  IC50: < 5 µM
[2]
  Activity against cancer cells (cell viability) as a function of pH and medium: did not allow cell growth

## HHHHLKKILKKLFQFINQLDNQLQDIHHHH [LP40]
[3]
  IC50: > 70 µM
[4]
  IC50: > 70 µM
[5]
  IC50: > 70 µM
[6]
  Effect on healthy primary cells in whole blood: no apparent deleterious effect
[7]
  Change in mouse weight: no significant change in mouse weight

## KKKKIKKIIKKIFQFINQIDNQIQDIKQNK-NH2 [LP33]
[8]
  Calcein leakage (%) from LUVs at P:L 1:100 (mol/mol): 28.3 ± 9.3%
E. coli (TOP10)
  MIC: 50 µM
S. carnosus (CCM 4838T)
  MIC: > 50 µM
[9]
  IC50: > 50 µM
[3]
  IC50: < 2 µM
[4]
  IC50: 27 µM
[5]
  IC50: > 128 µM

## KKKKLKKILKKLFQFIQQLDQQLQDIKQQK-NH2 [LP35]
[8]
  Calcein leakage (%) from LUVs at P:L 1:100 (mol/mol): 63.3 ± 6.7%
E. coli (TOP10)
  MIC: 0.4 µM
S. carnosus (CCM 4838T)
  MIC: 0.4 µM
[10]
  IC50: 36 µM
E. coli (E1098)
  MIC: 0.5 µM
